#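 The concentration for 50% growth inhibition is given as GI50. TGI is the concentration that stops growth completely.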
# Legend:
# Test in all cases: NCI-60 cell line screen, 384-well format
# RXF 393 renal = test system: RXF 393 renal
# SF-539 CNS = test system: SF-539 CNS
# SR leukemia = test system: SR leukemia
# OVCAR-5 ovarian = test system: OVCAR-5 ovarian
# NCI-H522 lung = test system: NCI-H522 lung
# NCI-H460 NSCLC = test system: NCI-H460 NSCLC
# NCI-H322M lung = test system: NCI-H322M lung
# COLO 205 colon = test system: COLO 205 colon
# UACC-257 melanoma = test system: UACC-257 melanoma
# RPMI-8226 leukemia = test system: RPMI-8226 leukemia
# SN12C renal = test system: SN12C renal
# SW-620 colon = test system: SW-620 colon
# A498 renal = test system: A498 renal
# KM12 colon = test system: KM12 colon
# ACHN renal = test system: ACHN renal
# K-562 leukemia = test system: K-562 leukemia
# PC-3 prostate = test system: PC-3 prostate
# LOX IMVI melanoma = test system: LOX IMVI melanoma
# NCI-H226 lung = test system: NCI-H226 lung
# SK-MEL-28 melanoma = test system: SK-MEL-28 melanoma
# CCRF-CEM leukemia = test system: CCRF-CEM leukemia
# HOP-92 NSCLC = test system: HOP-92 NSCLC
# OVCAR-3 ovarian = test system: OVCAR-3 ovarian
# NCI-H23 lung = test system: NCI-H23 lung
# UO-31 renal = test system: UO-31 renal
# M14 melanoma = test system: M14 melanoma
# HL-60(TB) leukemia = test system: HL-60(TB) leukemia
# CAKI-1 renal = test system: CAKI-1 renal
# OVCAR-8 ovarian = test system: OVCAR-8 ovarian
# BT-549 breast = test system: BT-549 breast
# MOLT-4 leukemia = test system: MOLT-4 leukemia
# MCF7 breast = test system: MCF7 breast
# UACC-62 melanoma = test system: UACC-62 melanoma
# A549 NSCLC = test system: A549 NSCLC
# MALME-3M melanoma = test system: MALME-3M melanoma
# NCI/ADR-RES ovarian = test system: NCI/ADR-RES ovarian
# T-47D breast = test system: T-47D breast
# DU-145 prostate = test system: DU-145 prostate
# HT29 colon = test system: HT29 colon
# TK-10 renal = test system: TK-10 renal
# HCT-15 colon = test system: HCT-15 colon
# SNB-19 CNS = test system: SNB-19 CNS
# SK-OV-3 ovarian = test system: SK-OV-3 ovarian
# MDA-MB-468 breast = test system: MDA-MB-468 breast
# OVCAR-4 ovarian = test system: OVCAR-4 ovarian
# U251 glioblastoma = test system: U251 glioblastoma
# SF-295 CNS = test system: SF-295 CNS
# HOP-62 NSCLC = test system: HOP-62 NSCLC
# SF-268 CNS = test system: SF-268 CNS
# SK-MEL-2 melanoma = test system: SK-MEL-2 melanoma
# HCC-2998 colon = test system: HCC-2998 colon
# IGROV1 ovarian = test system: IGROV1 ovarian
# SK-MEL-5 melanoma = test system: SK-MEL-5 melanoma
# HCT-116 colon = test system: HCT-116 colon
# MDA-MB-435 melanoma = test system: MDA-MB-435 melanoma
# 786-0 renal = test system: 786-0 renal
# MDA-MB-231 breast = test system: MDA-MB-231 breast
smiles,measurement,setting,value
Cc1c(-c2ccc(N3CCc4cccc(C(=O)Nc5nc6ccccc6s5)c4C3)nc2C(=O)O)cnn1CC12CC3CC(CC(C3)C1)C2,GI50,RXF 393 renal,< 0.01 µM
same,TGI,RXF 393 renal,0.0108 µM
same,GI50,SF-539 CNS,14.6 µM
same,TGI,SF-539 CNS,27.8 µM
same,GI50,SR leukemia,0.0191 µM
same,TGI,SR leukemia,2.47 µM
same,GI50,OVCAR-5 ovarian,0.351 µM
same,TGI,OVCAR-5 ovarian,12.5 µM
same,GI50,NCI-H522 lung,3.66 µM
same,TGI,NCI-H522 lung,17.6 µM
same,GI50,NCI-H460 NSCLC,17.1 µM
same,TGI,NCI-H460 NSCLC,30.8 µM
same,GI50,NCI-H322M lung,7.97 µM
same,TGI,NCI-H322M lung,21 µM
same,GI50,COLO 205 colon,0.272 µM
same,TGI,COLO 205 colon,1.73 µM
same,GI50,UACC-257 melanoma,9.83 µM
same,TGI,UACC-257 melanoma,21.5 µM
same,GI50,RPMI-8226 leukemia,< 0.01 µM
same,TGI,RPMI-8226 leukemia,< 0.01 µM
same,GI50,SN12C renal,13.5 µM
same,TGI,SN12C renal,26.4 µM
same,GI50,SW-620 colon,12.4 µM
same,TGI,SW-620 colon,24.8 µM
same,GI50,A498 renal,0.0911 µM
same,TGI,A498 renal,2.39 µM
same,GI50,KM12 colon,11.2 µM
same,TGI,KM12 colon,23.2 µM
same,GI50,ACHN renal,11.6 µM
same,TGI,ACHN renal,23.8 µM
same,GI50,K-562 leukemia,10.8 µM
same,TGI,K-562 leukemia,22.8 µM
same,GI50,PC-3 prostate,4.89 µM
same,TGI,PC-3 prostate,17.4 µM
same,GI50,LOX IMVI melanoma,6.46 µM
same,TGI,LOX IMVI melanoma,18.6 µM
same,GI50,NCI-H226 lung,1 µM
same,TGI,NCI-H226 lung,11.5 µM
same,GI50,SK-MEL-28 melanoma,4.35 µM
same,TGI,SK-MEL-28 melanoma,16.3 µM
same,GI50,CCRF-CEM leukemia,< 0.01 µM
same,TGI,CCRF-CEM leukemia,0.0112 µM
same,GI50,HOP-92 NSCLC,< 0.01 µM
same,TGI,HOP-92 NSCLC,0.0174 µM
same,GI50,OVCAR-3 ovarian,4.03 µM
same,TGI,OVCAR-3 ovarian,18.1 µM
same,GI50,NCI-H23 lung,8.42 µM
same,TGI,NCI-H23 lung,20.9 µM
same,GI50,UO-31 renal,1.14 µM
same,TGI,UO-31 renal,12 µM
same,GI50,M14 melanoma,16 µM
same,TGI,M14 melanoma,29.5 µM
same,GI50,HL-60(TB) leukemia,2.53 µM
same,TGI,HL-60(TB) leukemia,5.94 µM
same,GI50,CAKI-1 renal,13.8 µM
same,TGI,CAKI-1 renal,26.8 µM
same,GI50,OVCAR-8 ovarian,11.8 µM
same,TGI,OVCAR-8 ovarian,24.1 µM
same,GI50,BT-549 breast,9.65 µM
same,TGI,BT-549 breast,21.4 µM
same,GI50,MOLT-4 leukemia,< 0.01 µM
same,TGI,MOLT-4 leukemia,< 0.01 µM
same,GI50,MCF7 breast,14.2 µM
same,TGI,MCF7 breast,27.2 µM
same,GI50,UACC-62 melanoma,13.6 µM
same,TGI,UACC-62 melanoma,26.4 µM
same,GI50,A549 NSCLC,8.57 µM
same,TGI,A549 NSCLC,21 µM
same,GI50,MALME-3M melanoma,11.6 µM
same,TGI,MALME-3M melanoma,23.8 µM
same,GI50,NCI/ADR-RES ovarian,13.5 µM
same,TGI,NCI/ADR-RES ovarian,26.4 µM
same,GI50,T-47D breast,10.6 µM
same,TGI,T-47D breast,22.4 µM
same,GI50,DU-145 prostate,16.7 µM
same,TGI,DU-145 prostate,30.4 µM
same,GI50,HT29 colon,12.9 µM
same,TGI,HT29 colon,25.6 µM
same,GI50,TK-10 renal,2.48 µM
same,TGI,TK-10 renal,16 µM
same,GI50,HCT-15 colon,4.28 µM
same,TGI,HCT-15 colon,16.6 µM
same,GI50,SNB-19 CNS,10 µM
same,TGI,SNB-19 CNS,21.6 µM
same,GI50,SK-OV-3 ovarian,6.03 µM
same,TGI,SK-OV-3 ovarian,18.7 µM
same,GI50,MDA-MB-468 breast,1.7 µM
same,TGI,MDA-MB-468 breast,7.04 µM
same,GI50,OVCAR-4 ovarian,0.0115 µM
same,TGI,OVCAR-4 ovarian,13.2 µM
same,GI50,U251 glioblastoma,11.6 µM
same,TGI,U251 glioblastoma,23.9 µM
same,GI50,SF-295 CNS,3.63 µM
same,TGI,SF-295 CNS,15.2 µM
same,GI50,HOP-62 NSCLC,15.3 µM
same,TGI,HOP-62 NSCLC,28.7 µM
same,GI50,SF-268 CNS,15.2 µM
same,TGI,SF-268 CNS,28.5 µM
same,GI50,SK-MEL-2 melanoma,< 0.01 µM
same,TGI,SK-MEL-2 melanoma,2.67 µM
same,GI50,HCC-2998 colon,< 0.01 µM
same,TGI,HCC-2998 colon,0.0661 µM
same,GI50,IGROV1 ovarian,1.67 µM
same,TGI,IGROV1 ovarian,4 µM
same,GI50,SK-MEL-5 melanoma,12.8 µM
same,TGI,SK-MEL-5 melanoma,25.4 µM
same,GI50,HCT-116 colon,3.88 µM
same,TGI,HCT-116 colon,16.9 µM
same,GI50,MDA-MB-435 melanoma,2.47 µM
same,TGI,MDA-MB-435 melanoma,14 µM
same,GI50,786-0 renal,3.65 µM
same,TGI,786-0 renal,15.5 µM
same,GI50,MDA-MB-231 breast,< 0.01 µM
same,TGI,MDA-MB-231 breast,0.186 µM

# From PubChem BioAssay (NCI)
